{"source": "patent US6624317B1", "about": "“Taxoid conjugates as antimitotic and antitumor agents” (priority 2000, dated 2003)", "key": {"[1]": {"test_system": "epiderimoid carcinoma of the nasopharynx (KB)", "assay": "in vitro cytotoxicity assay, KB", "format": "cell-based, human", "settings": "drug exposure 3 days", "experimental": "(§1) Biological Assay. The in vitro cytotoxicity assay was carried out according to procedures described in Rubinstein et al. (P. Ferguson et al., Cancer Res. 1988, 48, 5956-5964). […] The human tumor cell line panel consisted of epiderimoid carcinoma of the nasopharynx (KB), lung carcinoma (A-549), ileocecal carcinoma (HCT-8), renal cancer (CAKI-1), breast cancer (MCF-7), melanoma cancer (SKMEL-2), and ovarian cancer (1A9). The drug resistant cell line panel consisted of three KB-derivatives, -7d, -CPT, and -VCR. The properties of these cells are described elsewhere (P. Ferguson et al., Cancer Res. 1988, 48, 5956-5964; D. Beidler et al., Cancer Res. 1996, 56, 345-353). […] They were a generous gift of Dr. P. Giannakakou (P. Giannakakou et al., J. Biol. Chem. 1997, 27, 17118-17125). Cells were cultured at 37° C. in RPMI-1640 with 100 ug/mL kanamycin and 10% (v/v) fetal bovine serum in a humidified atmosphere containing 5% CO2. Initial seeding densities varied among the cell lines to ensure a final absorbance of 1-2.5 A562 units. Drug exposure was for 3 days, and the ED50 value, the drug concentration that reduced the absorbance by 50%, was interpolated from dose-response data."}, "[2]": {"test_system": "leukemia cell lines", "assay": "NCI human tumor cell lines, leukemia", "format": "cell-based", "settings": "average over all cell lines of the tumor type; data provided by the NCI"}, "[3]": {"test_system": "renal cancer (CAKI-1)", "assay": "in vitro cytotoxicity assay, CAKI-1", "settings": "read-out: Cytotoxicity (ED50) CAKI-1; CAKI-1; drug exposure 3 days", "experimental": "as §1"}, "[4]": {"test_system": "lung carcinoma (A-549)", "assay": "in vitro cytotoxicity assay, A549", "settings": "read-out: Cytotoxicity (ED50) A549; A549; drug exposure 3 days; NA = not active", "experimental": "as §1"}, "[5]": {"test_system": "melanoma cancer (SKMEL-2)", "assay": "in vitro cytotoxicity assay, SK-MEL-2", "settings": "read-out: Cytotoxicity (ED50) SK-MEL-2; SK-MEL-2; drug exposure 3 days; NA = not active", "experimental": "as §1"}, "[6]": {"test_system": "Non-small cell lung cancer cell lines", "assay": "NCI human tumor cell lines, NSCL", "format": "cell-based", "settings": "average over all cell lines of the tumor type; data provided by the NCI"}, "[7]": {"test_system": "Topoisomerase II", "assay": "Topoisomerase II activity assay (inhibition of topo II in vitro)", "format": "biochemical", "settings": "NA^1 not active at 50 uM, NA^2 not active at 100 uM", "text": "(§2) Protein-Linked DNA Break and Topoisomerase 11 Activity Assays. The procedures were done according to detailed published methods (K. Bastow et al., Bioorg. Med. Chem. 1997, 5, 1481-1488)."}, "[8]": {"test_system": "renal cell lines", "assay": "NCI human tumor cell lines, renal", "format": "cell-based", "settings": "average over all cell lines of the tumor type; data provided by the NCI"}, "[9]": {"test_system": "breast cancer (MCF-7)", "assay": "in vitro cytotoxicity assay, MCF-7", "settings": "read-out: Cytotoxicity (ED50) MCF-7; MCF-7; drug exposure 3 days", "experimental": "as §1"}, "[10]": {"test_system": "PAX-10", "assay": "cytotoxicity in paclitaxel-resistant 1A9 sub-line PAX-10", "format": "cell-based, human", "settings": "PAX-10 paclitaxel-resistant 1A9 sub-line", "experimental": "as §1\n(§3) The newly synthesized taxoid-4′-O-demethyl epipodophyllotoxin conjugates were evaluated in house using standard cytotoxicity assays in human tumor (HTCL) and drug-resistant (DRCL) cell lines. Reference compounds were paclitaxel (1), cephalomannine (2), and epipodophyllotoxins [etoposide (5) and GL-331 (7), see FIG. 1]. The HTCL panel was comprised of KB, A549, HCT-8, CAKI-1, MCF-7, SK-MEL-2, and 1A9 cell lines. Two paclitaxel-resistant 1A9 sub-lines designated as PAX-10 and PAX-22 were also tested as part of the DRCL panel. Other resistant-cell lines were KB derivatives expressing various mechanisms or multi-drug resistance as described elsewhere (P. Ferguson et al., Cancer Res. 1988, 48, 5956-5964; D. Beidler et al., Cancer Res. 1996, 56, 345-353)."}, "[11]": {"test_system": "paclitaxel resistant cells", "assay": "cytotoxicity against paclitaxel resistant cells (overall)", "format": "cell-based, human", "settings": "compared with the unconjugated components, Table 3", "experimental": "as §1, §3"}, "[12]": {"test_system": "Central nervous system cancer cell lines", "assay": "NCI human tumor cell lines, CNS", "format": "cell-based", "settings": "average over all cell lines of the tumor type; data provided by the NCI"}, "[13]": {"test_system": "prostate cell lines", "assay": "NCI human tumor cell lines, prostate", "format": "cell-based", "settings": "average over all cell lines of the tumor type; data provided by the NCI"}, "[14]": {"test_system": "PAX-22", "assay": "cytotoxicity in paclitaxel-resistant 1A9 sub-line PAX-22", "format": "cell-based, human", "settings": "PAX-22 paclitaxel-resistant 1A9 sub-line", "experimental": "as §1, §3"}, "[15]": {"test_system": "breast cell lines", "assay": "NCI human tumor cell lines, breast", "format": "cell-based", "settings": "average over all cell lines of the tumor type; data provided by the NCI"}, "[16]": {"test_system": "Cellular protein-DNA complex formation", "assay": "Protein-linked DNA break assay (cellular protein-DNA complex formation)", "format": "cell-based", "text": "as §2"}, "[17]": {"test_system": "KB-VCR", "assay": "cytotoxicity in drug resistant cell line KB-VCR", "format": "cell-based, human", "settings": "KB-VCR drug resistant KB derivative", "experimental": "as §1, §3"}, "[18]": {"test_system": "Colon cell lines", "assay": "NCI human tumor cell lines, colon", "format": "cell-based", "settings": "average over all cell lines of the tumor type; data provided by the NCI"}, "[19]": {"test_system": "approximately 60 human tumor cell lines", "assay": "NCI cytotoxicity evaluation in approximately 60 human tumor cell lines (overall)", "format": "cell-based", "settings": "especially leukemia, colon, and prostate cell lines"}, "[20]": {"test_system": "ovarian cell lines", "assay": "NCI human tumor cell lines, ovarian", "format": "cell-based", "settings": "average over all cell lines of the tumor type; data provided by the NCI"}, "[21]": {"test_system": "melanoma cell lines", "assay": "NCI human tumor cell lines, melanoma", "format": "cell-based", "settings": "average over all cell lines of the tumor type; data provided by the NCI"}, "[22]": {"test_system": "ovarian cancer (1A9)", "assay": "in vitro cytotoxicity assay, 1A9", "settings": "read-out: Cytotoxicity (ED50) 1A9 (OVCAR); 1A9 (OVCAR); drug exposure 3 days", "experimental": "as §1"}, "[23]": {"test_system": "KB-CPT", "assay": "cytotoxicity in drug resistant cell line KB-CPT", "format": "cell-based, human", "settings": "KB-CPT drug resistant KB derivative", "experimental": "as §1, §3"}, "[24]": {"test_system": "ileocecal carcinoma (HCT-8)", "assay": "in vitro cytotoxicity assay, HCT-8", "settings": "read-out: Cytotoxicity (ED50) HCT-8; HCT-8; drug exposure 3 days; NA = not active", "experimental": "as §1"}, "[25]": {"test_system": "KB-7d", "assay": "cytotoxicity in drug resistant cell line KB-7d", "format": "cell-based, human", "settings": "KB-7d drug resistant KB derivative", "experimental": "as §1, §3"}}}
{"smiles": "COc1cc([C@@H]2c3cc4c(cc3[C@@H](N=Cc3ccc(C(=O)O[C@@H](C(=O)O[C@H]5C[C@@]6(O)[C@@H](OC(=O)c7ccccc7)[C@@H]7[C@]8(OC(C)=O)CO[C@@H]8C[C@H](O)[C@@]7(C)C(=O)[C@H](OC(C)=O)C(=C5C)C6(C)C)[C@@H](NC(=O)c5ccccc5)c5ccccc5)cc3)[C@H]3COC(=O)[C@H]23)OCO4)cc(OC)c1O", "note": "[Compound 12]", "values": [{"measurement": "Cytotoxicity (ED50) KB", "setting": "[1]", "value": 3, "unit": "nM"}, {"measurement": "log GI50 leukemia", "setting": "[2]", "value": "−7.60"}, {"measurement": "EC50", "setting": "[3]", "value": "> 250", "unit": "nM"}, {"measurement": "EC50", "setting": "[4]", "value": 210, "unit": "nM"}, {"measurement": "EC50", "setting": "[5]", "value": "> 400", "unit": "nM"}, {"measurement": "log GI50 NSCL", "setting": "[6]", "value": "−6.58"}, {"measurement": "Inhibition of Topo II IC100", "setting": "[7]", "value": 100, "unit": "µM"}, {"measurement": "log GI50 renal", "setting": "[8]", "value": "−6.13"}, {"measurement": "EC50", "setting": "[9]", "value": 330, "unit": "nM"}, {"measurement": "Resistance Fold PAX-10", "setting": "[10]", "value": 7}, {"measurement": "activity against paclitaxel resistant cells (in words)", "setting": "[11]", "value": "enhanced activity against paclitaxel resistant cells"}, {"measurement": "log GI50 CNS", "setting": "[12]", "value": "−6.93"}, {"measurement": "log GI50 prostate", "setting": "[13]", "value": "−7.22"}, {"measurement": "Resistance Fold PAX-22", "setting": "[14]", "value": 17}, {"measurement": "log GI50 breast", "setting": "[15]", "value": "−6.56"}, {"measurement": "Cellular protein-DNA complex formation", "setting": "[16]; Etoposide given as 100, NA^1 not active at 50 uM, NA^2 not active at 100 uM", "value": "8 +/− 2%"}, {"measurement": "intracellular poisoning / stimulation of protein-DNA breaks in cells (in words)", "setting": "[16]; in cells", "value": "intracellular poisons"}, {"measurement": "Resistance Fold KB-VCR", "setting": "[17]", "value": 17}, {"measurement": "log GI50 Colon", "setting": "[18]", "value": "−7.20"}, {"measurement": "inhibitory effects against NCI tumor cell lines (in words)", "setting": "[19]", "value": "strongest inhibitory effects against a variety of tumor cell lines"}, {"measurement": "log GI50 ovarian", "setting": "[20]", "value": "−6.55"}, {"measurement": "log GI50 melanoma", "setting": "[21]", "value": "−6.29"}, {"measurement": "EC50", "setting": "[22]", "value": 30, "unit": "nM"}, {"measurement": "Resistance Fold KB-CPT", "setting": "[23]", "value": 1}, {"measurement": "EC50", "setting": "[24]", "value": 540, "unit": "nM"}, {"measurement": "Resistance Fold KB-7d", "setting": "[25]", "value": 1}]}
